Results as given in PMC9822014, “Antibacterial Thiopeptide GE2270-Congeners from Nonomuraea jiangxiensis” (Molecules, 2022).
Values after ≈ are worked out from the molar mass of the structure shown. “Also recorded” adds a separate entry of the source. Read-outs that look alike come from different tables or passages of the source.

Columns and labels:
[1] = system: Clostridium difficile infections; parameters: method as in PMID 25534727, PMID 22315981; details: phase 2 clinical trial, humans; cited from earlier work
[2] = system: Staphylococcus aureus Rosenbach (ATCC 25923); experiment: Antibacterial microbroth dilution MIC/MBC against S. aureus; assay type: cell-based; details: S. aureus Rosenbach ATCC 25923; for MIC90 / MBC90 (minimal bactericidal concentration) / MBC / MIC: Staphylococcus aureus; for MIC90 / MBC90 (minimal bactericidal concentration) / MBC: ATCC25923; for MBC90 (minimal bactericidal concentration): read-out: MBC (IC90) / minimal bactericidal concentration (MBC90); for MBC: treated culture transferred to new media, read-out: MBC90 [(μM) mean ± SD]; for Relative antibacterial activity compared with another compound: 1 versus 2, 9 versus 8; for MIC: ATCC25923, 24 h
Method: The minimum inhibition concentration (MIC) and the minimum bactericidal/fungicidal concentration (MBC/MFC) were carried out using the microbroth dilution method according to the Clinical Laboratory Standards Institute (CLSI) guidelines, with some modifications. […] The tested compounds were then incubated together with bacterial cells at 37 °C for 24 h and with fungal spores at 25 °C for 72 h, respectively. The OD600 measurements were subsequentially carried out to evaluate the inhibitory effect of the compounds. To further determine the bactericidal and fungicidal effects of the compounds, 5 µL of the treated culture was transferred onto new media microplates. The plates were incubated under the same condition, followed by the OD600 measurement. […] The cells were then treated with the compounds for 72 h at 37 °C in the presence of 5% CO2. Any Cytotoxic effect was detected with PrestoBlue™ cell viability reagent (ThermoFisher Scientific, Waltham, MA, USA). The cells were read with a fluorescence reading at an excitation of 560 nm and an emission 590 nm. Standard inhibitors, gentamicin (Gibco, Waltham, MA, USA), amphotericin (Sigma-Aldrich, St. Louis, MO, USA) and puromycin (Sigma-Aldrich, St. Louis, MO, USA) were used as the assay controls for the antibacterial, antifungal and cytotoxicity assay. […] GraphPad Prism 8 software (GraphPad, San Diego, CA, USA) was used for the analysis of the bioactivity to determine the respective IC90 and IC50 values.

[3] = 37 °C, 24 h, OD600, mean ± SD, triplicates, read-out: MIC90 [(μM) mean ± SD]
[4] = Figure 5, read-out: MIC (IC90) / minimal inhibitory concentration (MIC90)

Row | SMILES | Recurrence rates versus vancomycin [1] | Antibacterial activity against S. aureus (in words) [2] | MIC90 [2, 3] | MBC90 (minimal bactericidal concentration) ([2]; Figure 5) | MIC90 [2, 4] | MBC ([2]; OD600, mean ± SD, triplicates) | Relative antibacterial activity compared with another compound [2] | MIC [2, 4]
1 | CNC(=O)C[C@@H]1NC(=O)c2csc(n2)-c2ccc(-c3nc(N(CCCCC(=O)O)C(=O)O[C@H]4CC[C@H](C(=O)O)CC4)cs3)nc2-c2csc(n2)-c2csc(n2)[C@H]([C@@H](O)c2ccccc2)NC(=O)CNC(=O)c2nc(sc2COC)[C@H](C(C)C)NC(=O)c2nc1sc2C [LFF571] | higher recurrence rates than conventional antibiotics treatment with vancomycin | – | – | – | – | – | – | –
2 | CNC(=O)CC1NC(=O)c2csc(n2)-c2ccc(-c3nc(C4=NC(C(=O)N5CCCC5C(=O)O)CO4)cs3)nc2-c2csc(n2)-c2csc(n2)C(C(O)c2ccccc2)NC(=O)CNC(=O)c2csc(n2)C(C(C)C)NC(=O)c2nc1sc2C (centres unmarked) [Compound 2, GE2270F2] | – | displayed activities | 6.94 ± 0.83 µM (≈ 8.66 µg/mL) | 67.9 µM (≈ 84.7 µg/mL) | 6.94 µM (≈ 8.66 µg/mL) | 67.9 ± 1.55 µM (≈ 84.7 µg/mL) | – | –
3 | CNC(=O)C[C@@H]1NC(=O)c2csc(n2)-c2ccc(-c3nc(C(=O)O)cs3)nc2-c2csc(n2)-c2csc(n2)[C@H]([C@@H](O)c2ccccc2)NC(=O)CNC(=O)c2nc(sc2COC)[C@H](C(C)C)NC(=O)c2nc1sc2C [Compound 9] | – | displayed activities | 10.3 ± 0.75 µM (≈ 11.6 µg/mL) | 52 µM (≈ 58.5 µg/mL) | 10.3 µM (≈ 11.6 µg/mL) | 52 ± 1.41 µM (≈ 58.5 µg/mL) | at least a three-fold reduction | –
4 | CNC(=O)CC1NC(=O)c2csc(n2)-c2ccc(-c3nc(C4=NC(C(=O)N5CCCC5C(=O)O)CO4)cs3)nc2-c2csc(n2)-c2csc(n2)C(C(O)c2ccccc2)NC(=O)CNC(=O)c2nc(sc2COC)C(C(C)C)NC(=O)c2csc1n2 (centres unmarked) [Compound 4, GE2270F4] | – | inactive; also recorded: no bioactivity | > 70 µM | > 70 µM | > 70 µM | > 70 µM | – | 2 to 11 µM (≈ 2.56 to 14.1 µg/mL)
5 | CNC(=O)C[C@@H]1NC(=O)c2csc(n2)-c2ccc(-c3nc(C(=O)OC)cs3)nc2-c2csc(n2)-c2csc(n2)[C@H]([C@@H](O)c2ccccc2)NC(=O)CNC(=O)c2nc(sc2COC)[C@H](C(C)C)NC(=O)c2nc1sc2C [Compound 8] | – | displayed activities | 3.17 ± 0.28 µM (≈ 3.61 µg/mL) | 16.2 µM (≈ 18.5 µg/mL) | 3.17 µM (≈ 3.61 µg/mL) | 16.2 ± 1.48 µM (≈ 18.5 µg/mL) | – | 3.17 µM (≈ 3.61 µg/mL)
6 | CNC(=O)C[C@@H]1NC(=O)c2csc(n2)-c2ccc(-c3nc(C(=O)OC)cs3)nc2-c2csc(n2)-c2csc(n2)[C@H]([C@@H](O)c2ccccc2)NC(=O)CNC(=O)c2csc(n2)[C@H](C(C)C)NC(=O)c2nc1sc2C [Compound 7] | – | displayed activities | 4.71 ± 0.37 µM (≈ 5.16 µg/mL) | 12.4 µM (≈ 13.6 µg/mL) | 4.71 µM (≈ 5.16 µg/mL) | 12.4 ± 1.06 µM (≈ 13.6 µg/mL) | – | –
7 | CNC(=O)C[C@@H]1NC(=O)c2csc(n2)-c2ccc(-c3nc(C(=O)N[C@@H](CO)C(=O)N4CCC[C@H]4C(N)=O)cs3)nc2-c2csc(n2)-c2csc(n2)[C@H]([C@@H](O)c2ccccc2)NC(=O)CNC(=O)c2nc(sc2COC)[C@H](C(C)C)NC(=O)c2nc1sc2C [Compound 6] | – | displayed activities; also recorded: demonstrated antibacterial activity | 7.07 ± 0.55 µM (≈ 9.25 µg/mL) | – | 7.07 µM (≈ 9.25 µg/mL) | – | – | 2 to 11 µM (≈ 2.62 to 14.4 µg/mL)
8 | CNC(=O)C[C@@H]1NC(=O)c2csc(n2)-c2ccc(-c3nc(C(=O)N[C@@H](CO)C(=O)N4CCC[C@H]4C(N)=O)cs3)nc2-c2csc(n2)-c2csc(n2)[C@H]([C@@H](O)c2ccccc2)NC(=O)CNC(=O)c2csc(n2)[C@H](C(C)C)NC(=O)c2nc1sc2C [Compound 5] | – | inactive | > 70 µM | > 70 µM | > 70 µM | > 70 µM | – | 2 to 11 µM (≈ 2.53 to 13.9 µg/mL)
9 | CNC(C)C1CCC(N)C(OC2C(N)CC(N)C(OC3OCC(C)(O)C(NC)C3O)C2O)O1 (centres unmarked) [Gentamicin, gentamicin, reference compound] | – | – | 0.04 ± 0.01 µM (≈ 0.0191 µg/mL) | 0.1 µM (≈ 0.0478 µg/mL) | 0.04 µM (≈ 0.0191 µg/mL) | 0.1 ± 0.01 µM (≈ 0.0478 µg/mL) | – | –
10 | CNC(=O)CC1NC(=O)c2csc(n2)-c2ccc(-c3nc(C4=NC(C(=O)N5CCCC5C(=O)O)CO4)cs3)nc2-c2csc(n2)-c2csc(n2)C(C(O)c2ccccc2)NC(=O)CNC(=O)c2nc(sc2COC)C(C(C)C)NC(=O)c2nc1sc2C (centres unmarked) [Compound 1, GE2270F1] | – | displayed activities | 2.63 ± 0.12 µM (≈ 3.4 µg/mL) | 18.5 µM (≈ 23.9 µg/mL) | 2.63 µM (≈ 3.4 µg/mL) | 18.5 ± 1.34 µM (≈ 23.9 µg/mL) | three-fold more active | 2.63 µM (≈ 3.4 µg/mL)
11 | CNC(=O)CC1NC(=O)c2csc(n2)-c2ccc(-c3nc(C4=NC(C(=O)N5CCCC5C(=O)O)CO4)cs3)nc2-c2csc(n2)-c2csc(n2)C(C(O)c2ccccc2)NC(=O)CNC(=O)c2csc(n2)C(C(C)C)NC(=O)c2csc1n2 (centres unmarked) [Compound 3, GE2270F3] | – | inactive; also recorded: no bioactivity | > 70 µM | > 70 µM | > 70 µM | > 70 µM | – | 2 to 11 µM (≈ 2.47 to 13.6 µg/mL)
